From patent US9469652B2, “ERK inhibitors” (Eli Lilly and Company, priority 2014, dated 2016) come the findings set out here.

One assay deals with T1, ERK2 (Homo sapiens, UniProt P28482).
T1 construct: purchased Invitrogen PV3595B
Description: ERK2 Kinase Assay (TR-FRET). Particulars: Abs_IC50, ATP 10 μM, GFP-ATF2 substrate; ±0.24, n=7. Format: biochemical. On the procedure: The purpose of this assay is to measure the ability of compounds to inhibit ERK2 kinase activity. Perform the ERK2 kinase assay in vitro using a TR-FRET assay. Start all reactions (12.5 μL) by adding 5 μL of ERK2 enzyme (Invitrogen, #PV3595B, final conc 50 ng/mL) plus substrate GFP-ATF2 (Invitrogen, #PV4445, final conc 0.2 μM), 5 μL of ATP solution (Invitrogen, #PV3227, final conc 10 μM) prepared in kinase buffer (50 mM Hepes pH 7.4, 5 mM MgCl2, 0.1 mM EGTA, 0.01% Triton X-100, 1 mM DTT) and 2.5 μL of testing compounds in DMSO solution (final 4%, v/v) in a 384-well PROXIPLATE™ (Perkin Elmer, #GRN6260). Incubate reactions at room temperature for 60 minutes. Stop reactions by addition of 12.5 μL of stop buffer (10 mM EDTA, 2 nM Tb-anti-pATF2 (pThr71) antibody, Invitrogen, #PV4448) in TR-FRET dilution buffer (Invitrogen, #PV3574). Incubate the plates at room temperature for an additional 60 minutes and read ON ENVISION® (PerkinElmer) plate reader at the excitation wavelength of 340 nm Calculate a TR-FRET ratio by dividing the GFP acceptor emission signal (at 520 nm) by the Tb donor emission signal (at 495 nm). Calculate percent inhibition using compound wells relative to on-plate Max (DMSO control) and Min (No enzyme added) control wells TR-FRET ratio data {% inhibition=100−[(test compound−median Min)/(median Max−median Min)×100]}. […]

The subject of assay [1] is human colorectal cancer cells HCT116. In words: Xenograft tumor model HCT116. Format: in vivo, female athymic nude mice. Particulars: oral gavage; for Delta T/C % or Regr %: negative = regression. The protocol: (§1) The purpose of this assay is to measure reduction in tumor volume in response to test compound administration. Expand human colorectal cancer cells HCT116 (ATCC, # CCL-247) in culture, harvest and inject 5×10e^6 cells in 200 μL of 1:1 HBSS+matrigel solution subcutaneously on to the rear right flank of female athymic nude mice (22-25 g, Harlan Laboratories). Expand human pancreatic cancer cells MIA PACA-2 (ATCC, # CRL-1420) or human non-small cell lung cancer cells CALU-6 (ATCC, #HTB-56) or human colorectal cancer cells COLO-205 (ATCC, #CCL-222) in culture, harvest and inject 5×10e^6 cells in 200 μL of 1:1 HBSS+matrigel solution subcutaneously on to the rear right flank of female athymic nude mice (22-25 g, Harlan Laboratories). Measure tumor growth and body weight twice per week beginning the seventh day after the implantation. When tumor sizes reach 200-400 mm^3, randomize animals and group into groups of eight to ten animals. Prepare test compound in an appropriate vehicle (vehicle: 1% HEC/0.25% Tween 80/0.05% Antifoam) and administer by oral gavage for 14 to 21 days. Tumor response is determined by tumor volume measurement performed twice a week during the course of treatment. Body weight is taken as a general measure of toxicity.
(§2) A compound within the scope of invention is tested in this assay run substantially as above.

Assay [2] has as its system human non-small cell lung cancer cells CALU-6. In words: Xenograft tumor model CALU-6. In kind it is in vivo, female athymic nude mice. Particulars: oral gavage; for Delta T/C % or Regr %: negative = regression. On the procedure:
as §1, §2

The test system of assay [3] is human non-small cell lung cancer cells NCI-H441 (KRAS_G12V). Description: In vivo combination study, NCI-H441 NSCLC xenograft model. Particulars: single agent. On the procedure:
More specifically, the compound of Example 1 is tested in combination with either the pan-RAF inhibitor compound or the CDK4/6 inhibitor compound in HCT116, a KRAS mutant colorectal cancer xenograft model. Also, the compound of Example 1 is tested in combination with either the CDK4/6 inhibitor compound or DC101 in NCI-H441, A549, and NCI-H2122, KRAS mutant non-small cell lung cancer (NSCLC) xenograft models.
Combination efficacy is also tested in three KRAS mutant NSCLC xenograft models including A549 (KRAS_G12S) in SCID mice as well as NCI-H441 (KRAS_G12V) and NCI-H2122 (KRAS_G12C) in athymic nude mice. Expand human non-small cell lung cancer cells NCI-H441 (ATCC, #CRL-5807) and NCI-H2122 (ATCC, #CRL-5985) in culture, harvest and inject 5×10e^6 cells in 200 μL of 1:1 HBSS+matrigel solution subcutaneously on to the rear right flank of female athymic nude mice (20-22 gm, Harlan Laboratories). Expand human non-small cell lung cancer cells A549 (ATCC, #CC1-185) in culture, harvest and inject 5×10e^6 cells in 200 μL of 1:1 HBSS+matrigel solution subcutaneously on to the rear right flank of female CB-17 SCID mice (18-20 gm, Taconic Farms). For all cell lines, measure tumor growth and body weight twice per week beginning the seventh day after the implantation. When average tumor sizes reach 200-300 mm^3, randomize animals and group into groups of five to seven animals. Prepare test compound in an appropriate vehicle (see below) and administer by oral gavage (compound of Example 1 and the CDK4/6 inhibitor compound) or intraperitoneally (DC101) for 21 to 28 days. Tumor response is determined by tumor volume measurement performed twice a week during the course of treatment. Vehicle used in these studies is 1% HEC/0.25% Tween® 80/0.05% Antifoam. The compound of Example 1 is formulated in 1% HEC/0.25% Tween® 80/0.05% Antifoam and the CDK4/6 inhibitor compound is formulated in 1% HEC in 25 mM sodium phosphate buffer, pH 2. […] In the same NCI-H441 xenograft model, DC101 in phosphate buffer is also administered intraperitoneally twice per week (BIW) as a single agent or in combination with the compound of Example 1, 50 mpk, QD for 28 days.

T1 sequence (P28482 whole entry): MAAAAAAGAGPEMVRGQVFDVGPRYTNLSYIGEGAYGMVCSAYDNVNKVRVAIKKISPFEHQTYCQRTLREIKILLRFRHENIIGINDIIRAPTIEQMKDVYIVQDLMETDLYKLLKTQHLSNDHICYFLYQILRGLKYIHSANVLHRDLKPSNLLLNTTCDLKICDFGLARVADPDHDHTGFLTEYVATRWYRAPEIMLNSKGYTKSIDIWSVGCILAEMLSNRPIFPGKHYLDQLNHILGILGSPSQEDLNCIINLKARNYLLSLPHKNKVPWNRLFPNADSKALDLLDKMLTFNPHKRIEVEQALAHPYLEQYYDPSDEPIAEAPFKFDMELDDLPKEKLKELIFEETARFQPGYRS

`Cn1nccc1Nc1nccc(-c2cc3c(s2)C(C)(C)N(CCN2CCOCC2)C3=O)n1` [Example 1, 6,6-Dimethyl-2-{2-[(1-methyl-1H-pyrazol-5-yl)amino]pyrimidin-4-yl}-5-[2-(morpholin-4-yl)ethyl]-5,6-dihydro-4H-thieno[2,3-c]pyrrol-4-one] came in with an IC50 on ERK2 of 5.24 nM. For the same molecule, the TGI % was determined as 108% in assay [1] (25 mg/kg QD); 89% in assay [1] (50 mg/kg QD); 125% in assay [1] (100 mg/kg QD); 78% in assay [2] (12.5 mg/kg QD); 86% in assay [2] (25 mg/kg QD); 131% in assay [2] (50 mg/kg QD). Besides, the TGI % in assay [2] (100 mg/kg QD) was 177%. The “Delta T/C % or Regr %” value is −8% in assay [1] (25 mg/kg QD); 11% in assay [1] (50 mg/kg QD); −25% in assay [1] (100 mg/kg QD); 22% in assay [2] (12.5 mg/kg QD); 14% in assay [2] (25 mg/kg QD); −31% in assay [2] (50 mg/kg QD). Moreover, the “Delta T/C % or Regr %” value in assay [2] (100 mg/kg QD) was −77%. In assay [3] (50 mg/kg QD, oral, 28 days), the Regression % is given as 1%. For the same molecule, in assay [3] (50 mpk), the tumor growth inhibition came to 101%.
